{"source": "BindingDB's records for PubMed 27409354", "about": "(n/a, 2016)", "assay": "Binding affinity to CypD (unknown origin)"}
{"smiles": "O=C(Nc1ccc2nc(-c3ccco3)c(-c3ccco3)nc2c1)N1CCCC1", "values": [{"measurement": "Ki", "result": 2, "unit": "µM"}]}
